In PubChem BioAssay (NCI) one finds TGI and GI50 data, which are given here for 19 compounds.

Test systems include MDA-MB-435; T-47D breast; NCI-H226 lung; NCI-H522 lung; HOP-18 NSCLC; HOP-62 NSCLC; MOLT-4 leukemia; SK-MEL-5 melanoma; LXFL 529 NSCLC; DLD-1 colon.
What all share (assay): growth of human tumour cells (NCI), 48 h

“And” between values parts separate entries of the source, which are not always exact repeats. Equal values may be shown once.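 Five compound concentrations were applied to cells in 96-well plates for 48 hours; endpoints were derived by simple linear interpolation of the resulting dose-response curve. Here, GI50 denotes the concentration required for 50% inhibition of growth. TGI denotes the concentration required for complete inhibition of growth.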 A value given as a limit tells only on which side of the number the result lay.

For `Nc1ccc(Sc2c3ccccc3nc3ccccc23)cc1`, the TGI stood at 35.1 µM in the test on MDA-MB-435; 5.6 µM with T-47D breast; 58.4 µM in the test with NCI-H226 lung; 16 µM with NCI-H522 lung; 41.7 µM in the test with HOP-18 NSCLC; 56.9 µM with HOP-62 NSCLC. For the same compound, the TGI in the test with MOLT-4 leukemia stood at 27.1 µM; with SK-MEL-5 melanoma, 30.6 µM; with LXFL 529 NSCLC it was 21 µM; in the test with DLD-1 colon, 19.7 µM.
`CCOC(=O)c1cccnc1C(OC(C)=O)OC(C)=O`: the TGI with NCI-H226 lung, in the test on NCI-H522 lung, in the test on HOP-18 NSCLC, in the test with HOP-62 NSCLC, in the test on MOLT-4 leukemia and with SK-MEL-5 melanoma was above 100 µM each time. The TGI with LXFL 529 NSCLC and in the test with DLD-1 colon was above 100 µM in each case.
With `O=C1C2C3C=CC(C2C(=O)N1CN1CCSCC1)C1C2C(=O)N(CN4CCSCC4)C(=O)C2C31` (configuration not stated), the TGI in the test on NCI-H226 lung was above 100 µM; with NCI-H522 lung, above 100 µM; in the test on HOP-18 NSCLC, 91.5 µM; with HOP-62 NSCLC it was above 100 µM; in the test on MOLT-4 leukemia it was above 100 µM; in the test with SK-MEL-5 melanoma, above 100 µM. Moreover, the values for the TGI with LXFL 529 NSCLC and with DLD-1 colon were above 100 µM and above 79.3 µM, respectively. Also, the GI50 with NCI-H522 lung was 82.3 µM; in the test with MOLT-4 leukemia, 54.2 µM.
With `O=c1cc(-c2ccccc2)[nH]c2cc(Cl)ccc12`, the TGI in the test with NCI-H226 lung was 56 µM; with NCI-H522 lung it was 0.358 µM; in the test on HOP-18 NSCLC, above 100 µM; in the test on HOP-62 NSCLC it was 13.3 µM; with MOLT-4 leukemia, 15.9 µM; with SK-MEL-5 melanoma it was 19.6 µM. For the same compound, the TGI with LXFL 529 NSCLC worked out at 53.2 µM; in the test on DLD-1 colon, 23.8 µM.
As to `COC(=O)/C(=N\NC(N)=O)C(C(=O)C=C(C)C)C(=O)C(=O)Nc1ccc(Cl)c(Cl)c1` (configuration not stated), the TGI with NCI-H226 lung, in the test with NCI-H522 lung, in the test on HOP-18 NSCLC, in the test with HOP-62 NSCLC, in the test with MOLT-4 leukemia and in the test with SK-MEL-5 melanoma was above 100 µM throughout. For the same compound, the TGI in the test with LXFL 529 NSCLC and with DLD-1 colon was above 100 µM in each case.
As to `Cc1ccc2nc(NC(=O)/C(=N\NC(=S)NN)C3C(=O)NC(=S)NC3=O)sc2c1`, the TGI in the test on NCI-H226 lung, with NCI-H522 lung, in the test with HOP-18 NSCLC, in the test on HOP-62 NSCLC, in the test with MOLT-4 leukemia and in the test on SK-MEL-5 melanoma was above 100 µM throughout. Further, the TGI in the test on LXFL 529 NSCLC and in the test on DLD-1 colon was above 100 µM throughout.
`CCOC(=O)C(C(O)c1ccc([N+](=O)[O-])cc1)P(=O)(OCC)OCC` (configuration not stated): the TGI with NCI-H226 lung, in the test with NCI-H522 lung, in the test with HOP-18 NSCLC, with HOP-62 NSCLC, in the test with MOLT-4 leukemia and in the test with SK-MEL-5 melanoma was above 100 µM each time. Further, the TGI with LXFL 529 NSCLC and in the test on DLD-1 colon was above 100 µM throughout.
Turning to `CCOC(=O)C(=O)Nc1ccccc1C(C)C`, the TGI in the test on NCI-H226 lung, in the test with NCI-H522 lung, in the test with HOP-18 NSCLC, in the test with HOP-62 NSCLC, with MOLT-4 leukemia and in the test with SK-MEL-5 melanoma was above 100 µM each time. Besides, the TGI in the test with LXFL 529 NSCLC and in the test on DLD-1 colon was above 100 µM each time.
For the compound `COc1ccc2nc(NC(=O)C(=O)NNC(=O)c3ccncc3)sc2c1`, the TGI in the test with NCI-H226 lung, in the test with NCI-H522 lung, in the test with HOP-18 NSCLC, in the test with HOP-62 NSCLC, with SK-MEL-5 melanoma and in the test on LXFL 529 NSCLC was above 100 µM throughout. Moreover, the TGI in the test with DLD-1 colon is above 100 µM.
Turning to `Cc1ccccc1C1CC(c2ccccc2)=NO1` (configuration not stated), the TGI in the test on NCI-H226 lung, in the test with NCI-H522 lung, in the test on HOP-18 NSCLC, with HOP-62 NSCLC, in the test with MOLT-4 leukemia and in the test on SK-MEL-5 melanoma was above 100 µM throughout. Also, the TGI in the test with LXFL 529 NSCLC and with DLD-1 colon was above 100 µM in each case.
`CCOC1CC2OC(=O)C1C=C2C(=O)OC` (configuration not stated): the TGI was above 100 µM in the test with NCI-H226 lung; 28.1 µM in the test on NCI-H522 lung; above 100 µM in the test on HOP-18 NSCLC; above 100 µM in the test with HOP-62 NSCLC; 48.8 µM in the test with MOLT-4 leukemia; above 100 µM in the test with SK-MEL-5 melanoma. The TGI worked out at 36.1 µM in the test with LXFL 529 NSCLC and 65.8 µM in the test with DLD-1 colon.
Regarding `CCOP1(=O)C=C(C)C(=C(Cl)Cl)C(C)=C1` (configuration not stated), the results for the GI50 in the test on NCI-H226 lung, in the test with NCI-H522 lung and in the test on LXFL 529 NSCLC were 3.44 µM, 5.57 µM and 5.53 µM, respectively. Moreover, the TGI in the test on NCI-H226 lung is 21.2 µM; in the test with NCI-H522 lung, 7.79 µM and 18.9 µM; with HOP-18 NSCLC, 46.9 µM; in the test with HOP-62 NSCLC, 40.6 µM; in the test on MOLT-4 leukemia it was 42.9 µM; with LXFL 529 NSCLC, 24.1 µM. The compound also showed a TGI in the test on DLD-1 colon of 78.5 µM.
As for `CCN=C(C#N)NCC`, the TGI with NCI-H226 lung, with NCI-H522 lung, in the test with HOP-18 NSCLC, in the test with HOP-62 NSCLC, with MOLT-4 leukemia and with SK-MEL-5 melanoma was above 100 µM each time. In addition, the TGI in the test on LXFL 529 NSCLC and in the test with DLD-1 colon was above 100 µM throughout.
Consider `c1ccc2c(NCCCCCCNc3cccc4ccccc34)cccc2c1`, for which the TGI in the test with NCI-H226 lung, with NCI-H522 lung, with HOP-18 NSCLC, in the test on HOP-62 NSCLC, in the test with MOLT-4 leukemia and in the test with SK-MEL-5 melanoma was above 100 µM throughout. Also, the TGI in the test with LXFL 529 NSCLC and with DLD-1 colon was above 100 µM throughout.
Turning to `Cc1cc(Cl)ccc1NC(=O)C(=O)C(C(=O)c1ccccc1)C1OC(=O)c2ccccc21` (configuration not stated), the TGI in the test with NCI-H226 lung, in the test with NCI-H522 lung, with HOP-18 NSCLC, in the test with HOP-62 NSCLC, with MOLT-4 leukemia and in the test on SK-MEL-5 melanoma was above 100 µM each time. Moreover, the TGI with LXFL 529 NSCLC and with DLD-1 colon was above 100 µM in each case.
As for `Cn1cnc([N+](=O)[O-])c1Sc1nccc(=O)[nH]1`, the TGI with NCI-H226 lung, in the test with NCI-H522 lung, in the test with HOP-18 NSCLC, with HOP-62 NSCLC, with MOLT-4 leukemia and in the test on SK-MEL-5 melanoma was above 100 µM in each case. Besides, the TGI in the test on LXFL 529 NSCLC and with DLD-1 colon was above 100 µM in each case.
As to `COc1cc(/C=C2/C(=O)N(C(=O)OCc3ccccc3)C(Cc3cc(OC)c(OC)c(C)c3OC)C(=O)N2Cc2ccccc2)c(OC)c(C)c1OC` (configuration not stated), the TGI is 12.6 µM with NCI-H226 lung; above 100 µM in the test with NCI-H522 lung; above 100 µM in the test on HOP-18 NSCLC; above 100 µM with HOP-62 NSCLC; above 100 µM in the test with MOLT-4 leukemia; 65.9 µM with SK-MEL-5 melanoma. Moreover, the TGI with LXFL 529 NSCLC and with DLD-1 colon was above 100 µM throughout.
As to `CC1CC[P+](c2ccccc2)(c2ccccc2)CC1`, the TGI with NCI-H226 lung was above 100 µM; with NCI-H522 lung it was above 100 µM; with HOP-18 NSCLC it was above 100 µM; in the test with HOP-62 NSCLC it was above 100 µM; with MOLT-4 leukemia, above 100 µM; in the test on SK-MEL-5 melanoma it was 51.1 µM. For the same compound, the TGI in the test with LXFL 529 NSCLC and in the test on DLD-1 colon was above 100 µM throughout.
As for `COC[C@H](C)N=CN1CCc2ccccc2C1(Cc1ccccc1)Cc1ccccc1`, the TGI is 37 µM with NCI-H226 lung; 26.7 µM in the test on NCI-H522 lung; 24 µM with HOP-18 NSCLC; 95.4 µM with HOP-62 NSCLC; 37.9 µM with MOLT-4 leukemia; above 100 µM in the test with SK-MEL-5 melanoma. In addition, the TGI with LXFL 529 NSCLC was found to be 25.3 µM; in the test with DLD-1 colon, 29.8 µM.
